From US8283336B2, “Unit dosage for brain health” (N. V. Nutricia, priority 2007, dated 2012)

Key:
[1] = per 1.0 mg of the tocopherol equivalent; cited from earlier work
PC12 cells = experiment: survival of PC12 cells during incubation with nutrients; format: cell-based; conditions: control medium plus nutrient
[2] = system: muscarinic acetylcholine receptor; experiment: oxotremorine-induced membrane potential change in PC12 cells after incubation with nutrients (receptor functionality); format: cell-based; conditions: 1 day of incubation, then 50 μM oxotremorine, percentage change compared to control conditions
Protocol: After 1 day of incubation the medium+additions were replaced by control medium and the cells were stimulated with 50 μM oxotremorine, an agonist at the muscarinic acetylcholine receptor, involved in learning and memory. Oxotremorine induces a depolarization of the membrane which can be measured as a change in membrane potential. At a fixed dose of the agonist, increases in membrane potential are thought to reflect improvements in receptor functioning.

APP/PS1 mice [3] = experiment: abeta plaque burden in hippocampus of APP/PS1 mice fed enriched diets; format: in vivo; conditions: diet fed 3 months from 3 to 6 months of age, compared to control diet
Description: (§1) These mice start showing plaques in their brains as early as 4-5 months of age and are considered a good model for AD in scientific literature.
(§2) The diets were fed for a period of 3 months until the age of 6 months. Thereafter the mice were sacrificed and their brains processed for abeta plaque analyses and neurodegeneration analyses. The brain was cut into thin slices using a vibratome and the slices were stained for abeta using an antibody recognizing human abeta and for neurodegeneration using the amino-cupric staining The total number of plaques in the hippocampus was counted and the total surface of the area covered by plaques (plaque burden) was determined. Total surface area covered with neuritic plaques (staining positive for amino-cupric) was determined to measure the level of neurodegeneration.

APP/PS1 mice [4] = experiment: neurodegeneration (amino-cupric staining of neuritic plaques) in APP/PS1 mice fed enriched diets; format: in vivo; conditions: diet fed 3 months from 3 to 6 months of age, compared to control diet
Description: as §1, §2

| SMILES | IU vitamin E [1] [IU] | x mg α-TE [1] [mg α-TE] | further results |
| --- | --- | --- | --- |
| Cc1c(C)c2c(c(C)c1O)CCC(C)(CCCC(C)CCCC(C)CCCC(C)C)O2 (racemic) [all rac-α-tocopherol] | 1.10 | 0.74 | – |
| CC(=O)Oc1c(C)c(C)c2c(c1C)CCC(C)(CCCC(C)CCCC(C)CCCC(C)C)O2 (racemic) [all rac-α-tocopheryl acetate] | 1.00 | 0.67 | – |
| Cc1c(C)c2c(c(C)c1OC(=O)CCC(=O)O)CCC(C)(CCCC(C)CCCC(C)CCCC(C)C)O2 (racemic) [all rac-α-tocopheryl succinate] | 0.89 | 0.60 | – |
| CC/C=C\C/C=C\C/C=C\C/C=C\C/C=C\C/C=C\CCC(=O)O [DHA, docosahexaenoic acid] | – | – | cell death on incubation (PC12 cells): led to cell death |
| Cc1c(C)c2c(c(C)c1O)CC[C@@](C)(CCC[C@H](C)CCC[C@H](C)CCCC(C)C)O2 [RRR-α-tocopherol] | 1.49 | 1.0 | – |
| CC(=O)Oc1c(C)c(C)c2c(c1C)CC[C@@](C)(CCC[C@H](C)CCC[C@H](C)CCCC(C)C)O2 [RRR-α-tocopheryl acetate] | 1.36 | 0.91 | – |
| Cc1c(C)c2c(c(C)c1OC(=O)CCC(=O)O)CC[C@@](C)(CCC[C@H](C)CCC[C@H](C)CCCC(C)C)O2 [RRR-α-tocopheryl succinate] | 1.21 | 0.81 | – |
| CC(C)=CCC/C(C)=C/CC/C(C)=C/CC[C@]1(C)CCc2c(C)c(O)c(C)c(C)c2O1 [RRR-α-tocotrienol] | 0.75 | 0.50 | – |
| Cc1cc(O)c(C)c2c1O[C@](C)(CCC[C@H](C)CCC[C@H](C)CCCC(C)C)CC2 [RRR-β-tocopherol] | 0.75 | 0.50 | – |
| CC(C)=CCC/C(C)=C/CC/C(C)=C/CC[C@]1(C)CCc2c(C)c(O)cc(C)c2O1 [RRR-β-tocotrienol] | 0.08 | 0.05 | – |
| Cc1c(O)cc2c(c1C)O[C@](C)(CCC[C@H](C)CCC[C@H](C)CCCC(C)C)CC2 [RRR-γ-tocopherol] | 0.15 | 0.10 | – |
| Cc1cc(O)cc2c1O[C@](C)(CCC[C@H](C)CCC[C@H](C)CCCC(C)C)CC2 [RRR-δ-tocopherol] | 0.05 | 0.03 | – |
| O=c1ccn([C@@H]2O[C@H](COP(=O)(O)O)[C@@H](O)[C@H]2O)c(=O)[nH]1 [UMP, uridine monophosphate] | – | – | membrane potential change [2]: did not affect membrane potential change; plaque burden in the hippocampus (APP/PS1 mice [3]): not affected; level of neurodegeneration (APP/PS1 mice [4]): did not differ from the control |
